Results: patent publication EP4159743A1, “METHODS FOR PREPARING PYRIDAZINE COMPOUNDS” (ETH Zurich, priority 2021, dated 2023)

Assay: Kinetics measurements, control sample: decrease in absorption of the tetrazine alone over time
Format: physicochemical
Details: absorption at 525 nm monitored over time, trypsin buffer
Protocol: For kinetic measurements, 196 µL trypsin buffer was added with 2 µL of a 10 mM stock solution of compound 1 in DMSO (final concentration 100 µM) and 2 µL of a 10 mM stock solution of 3,6-di-2-pyridyl-1,2,4,5-tetrazine in DMSO (final concentration 100 µM) in a quartz cuvette. The sample was mixed well and absorption at 525 nm was monitored over time, measuring every minute. Measurements were done in triplicates. […] This was subtracted from the kinetic measurements. The obtained absorbance values were converted to concentrations through a standard curve and were plotted as the reciprocal concentration of the tetrazine reagent versus time to yield a second-order rate constant. Data analysis and statistical analysis were done in Microsoft Excel (2016) and Prism 7 (GraphPad).

rate constant (decrease in absorption over time, fitted to a first-order reaction equation): 2.96e-05 s⁻¹
SMILES: c1ccc(-c2nnc(-c3ccccn3)nn2)nc1 [3,6-di-2-pyridyl-1,2,4,5-tetrazine]
